# Measured values as given in paper PMC7235792, “Effect of the Most Relevant CYP3A4 and CYP3A5 Polymorphisms on the Pharmacokinetic Parameters of 10 CYP3A Substrates” (Biomedicines, 2020).
# How the values were obtained:
# [1] = human, in vivo
# [2] = CYP3A5 *1/*1 subjects compared to *1/*3 and *3/*3; population PK model; cited from earlier work
compound,measurement,setting,value
CC(C)C(=O)Oc1ccc(CO)cc1[C@H](CCN(C(C)C)C(C)C)c1ccccc1 [fesoterodine],AUC in CYP3A4 mutated alleles carriers (tendency),[1],lower AUC
same,Cl in CYP3A4 mutated alleles carriers (tendency),[1],higher Cl
CCOC(=O)C1=C(COCCN)NC(C)=C(C(=O)OC)C1c1ccccc1Cl (centres unmarked) [amlodipine],AUC in CYP3A5 PM,[1],higher AUC
OCCOCCN1CCN(C2=Nc3ccccc3Sc3ccccc32)CC1 [quetiapine],increased Cl,[2],29%
COC(c1ccccc1)(c1ccccc1)[C@H](Oc1nc(C)cc(C)n1)C(=O)O [ambrisentan],association of CYP3A polymorphisms with PK parameters,[1],no significant association
same,influence of CYP3A4 or CYP3A5 polymorphisms on elimination,[1],it does not appear that CYP3A4 or CYP3A5 polymorphisms influence its elimination
O=C1CCc2ccc(OCCCCN3CCN(c4cccc(Cl)c4Cl)CC3)cc2N1 [aripiprazole],association of CYP3A polymorphisms with PK parameters,[1],no significant association
Cc1cc2c(s1)Nc1ccccc1N=C2N1CCN(C)CC1 [olanzapine],association of CYP3A polymorphisms with PK parameters,[1],no significant association
